Assay results taken from patent US20240309016A1, “MACROCYCLIC HETEROCYCLE COMPOUNDS AND USE THEREOF” (TAKEDA PHARMACEUTICAL COMPANY LIMITED, priority 2023, published 2024).
Read-outs that look alike come from different tables or passages of the source.

Legend:
human OX2 receptor = biological target: T1, human OX2 receptor (Homo sapiens, UniProt O43614); assay: Measurement of orexin type 2 receptor agonist activity (Experimental Example 2; Fluo-4 AM calcium fluorescence, FDSS μCELL); format: cell-based; details: compound at 3 μM; CHO cells expressing human OX2 receptor; DMSO = 0%, 10 nM orexin A (human) = 100%
T1 construct: expressed in transfected cells
T1 sequence (O43614 1-444): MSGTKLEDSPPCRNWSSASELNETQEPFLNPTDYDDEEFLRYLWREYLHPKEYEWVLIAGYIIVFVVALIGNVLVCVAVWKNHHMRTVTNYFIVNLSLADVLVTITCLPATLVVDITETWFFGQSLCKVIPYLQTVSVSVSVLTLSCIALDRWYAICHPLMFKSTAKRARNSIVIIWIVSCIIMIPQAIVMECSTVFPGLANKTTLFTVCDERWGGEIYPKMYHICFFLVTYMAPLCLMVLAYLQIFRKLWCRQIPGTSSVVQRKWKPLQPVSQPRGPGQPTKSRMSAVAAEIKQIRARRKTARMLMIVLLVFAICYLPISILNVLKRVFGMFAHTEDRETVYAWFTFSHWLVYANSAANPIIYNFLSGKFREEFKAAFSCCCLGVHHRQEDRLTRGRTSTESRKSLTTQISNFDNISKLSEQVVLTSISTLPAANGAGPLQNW
Summary of the method: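 Agonism was tested in CHO-K1 cells stably expressing human OX2 receptor (residues 1-444), loaded with Fluo-4 AM plus probenecid. Calcium fluorescence was recorded for 1 min 40 s after compound addition. Activity (%) was scaled between DMSO (0%) and 10 nM orexin A (100%) and reported at 3 μM compound.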

| Compound | OX2R agonist activity (3 μM, %) (human OX2 receptor) [%] | also measured |
| --- | --- | --- |
| Cc1ccc2nc1Oc1cccc(c1)C[C@H]1[C@@H](NS(C)(=O)=O)CCN1C(=O)NC2 [Example 1, N-[(15aS,16S)-7-methyl-1-oxo-2,3,15a,16,17,18-hexahydro-1H,15H-4,8-(azeno)-10,14-(metheno)pyrrolo[1,2-j][1,8,10]oxadiazacyclo-heptadecin-16-yl]methanesulfonamide] | 107 | ring closure, yield of all isomers (from Cc1ccc(CN)nc1Oc1cccc(C[C@@H]2NCC[C@@H]2NS(C)(=O)=O)c1, other bond, CDI/DIPEA, DMF, 2.15 mM, 25.0 °C, 12.0 h): 29.9% |
| Cc1ccc2nc1Oc1cccc(c1F)C[C@H]1[C@@H](NS(C)(=O)=O)C(F)(F)CN1C(=O)NC2 [Example 4, N-[(15aS,16R)-17,17,20-trifluoro-7-methyl-1-oxo-2,3,15a,16,17,18-hexahydro-1H,15H-4,8-(azeno)-10,14-(metheno)pyrrolo[1,2-j][1,8,10]oxadiazacyclo-heptadecin-16-yl]methanesulfonamide] | 105 | ring closure, yield of all isomers (from Cc1ccc(CN)nc1Oc1cccc(C[C@@H]2NCC(F)(F)[C@@H]2NS(C)(=O)=O)c1F, other bond, di(N-succinimidyl) carbonate/DIPEA, THF, 7.42 mM, 25.0 °C, 16.0 h): 40.1% |
| O=C1NCc2ccc(Cl)c(n2)Oc2cccc(c2F)C[C@H]2[C@@H](NS(=O)(=O)C3CC3)C(F)(F)CN12 [Example 22, N-[(15aS,16R)-7-chloro-17,17,20-trifluoro-1-oxo-2,3,15a,16,17,18-hexahydro-1H,15H-4,8-(azeno)-14,10-(metheno)pyrrolo[1,2-j][1,8,10]oxadiazacyclo-heptadecin-16-yl]cyclopropanesulfonamide] | 100 | ring closure, yield of all isomers (from NCc1ccc(Cl)c(Oc2cccc(C[C@@H]3NCC(F)(F)[C@@H]3NS(=O)(=O)C3CC3)c2F)n1, other bond, di(N-succinimidyl) carbonate, THF, 1.85 mM, 25.0 °C, 0.08 h): 49.4% |
| Cc1ccc2nc1Oc1cccc(c1F)C[C@H]1[C@@H](NS(C)(=O)=O)C(F)(F)CN1C(=O)NC2C (stereo partly drawn) [Example 51, N-[(15aS,16R)-17,17,20-trifluoro-3,7-dimethyl-1-oxo-2,3,15a,16,17,18-hexahydro-1H,15H-4,8-(azeno)-14,10-(metheno)pyrrolo[1,2-j][1,8,10]oxadiazacyclo-heptadecin-16-yl]methanesulfonamide (optical isomer)] | 103 | ring closure, yield of all isomers (from Cc1ccc(C(C)N)nc1Oc1cccc(C[C@@H]2NCC(F)(F)[C@@H]2NS(C)(=O)=O)c1F, other bond, di(N-succinimidyl) carbonate, THF, 1.23 mM, 60.0 °C): 7.7% |
| Cc1ccc2nc1Oc1cccc(c1)C[C@H]1[C@@H](NS(C)(=O)=O)CCN1C(=O)CC2 [Example 7, N-[(1S,19aS)-11-methyl-5-oxo-2,3,6,7,19,19a-hexahydro-1H, 5H-8,12-(azeno)-14,18-(metheno)pyrrolo[2,1-h][1,9]oxazacycloheptadecin-1-yl]methanesulfonamide] | 103 | ring closure, yield of all isomers (from Cc1ccc(CCC(=O)O)nc1Oc1cccc(C[C@@H]2NCC[C@@H]2NS(C)(=O)=O)c1, amide bond, PyBOP/TEA, THF, 0.231 mM, 25.0 °C, 4.0 h): 20% |
| Cc1ccc2nc1Oc1cccc(c1F)C[C@H]1[C@@H](NS(C)(=O)=O)[C@@H](F)CN1C(=O)NC2 [Example 10, N-[(15aS,16R,17S)-17,20-difluoro-7-methyl-1-oxo-2,3,15a,16,17,18-hexahydro-1H,15H-4,8-(azeno)-14,10-(metheno)pyrrolo[1,2-j][1,8,10]oxadiazacyclo-heptadecin-16-yl]methanesulfonamide] | 96 | ring closure, yield of all isomers (from Cc1ccc(CN)nc1Oc1cccc(C[C@@H]2NC[C@H](F)[C@@H]2NS(C)(=O)=O)c1F, other bond, CDI, THF, 2.12 mM, 25.0 °C, 18.0 h): 16.7% |
| Cc1ccc2nc1Oc1cccc(c1)C[C@H]1[C@@H](NS(C)(=O)=O)CCN1C(=O)CO2 [Example 33, N-[(15aS,16S)-7-methyl-1-oxo-1,2,15a,16,17,18-hexahydro-15H-4,8-(azeno)-10,14-(metheno)pyrrolo[1,2-d][1,12,4]dioxazacyclo-heptadecin-16-yl]methanesulfonamide] | 102 | ring closure, yield of all isomers (from Cc1ccc(OCC(=O)O)nc1Oc1cccc(C[C@@H]2NCC[C@@H]2NS(C)(=O)=O)c1, amide bond, PyBOP, THF, 0.92 mM, 25.0 °C, 12.0 h): 3.4% |
| Cc1ccc2nc1OCc1cccc(c1)C[C@H]1[C@@H](NS(C)(=O)=O)CCN1C(=O)NC2 [Example 68, N-[(16aS,17S)-7-methyl-1-oxo-2,3,16a,17,18,19-hexahydro-1H,10H,16H-4,8-(azeno)-11,15-(metheno)pyrrolo[1,2-j][1,8,10]oxadiazacyclo-octadecin-17-yl]methanesulfonamide] | 100 | ring closure, yield of all isomers (from Cc1ccc(CNC(=O)OC(C)(C)C)nc1OCc1cccc(C[C@H]2[C@@H](N(COCC[Si](C)(C)C)S(C)(=O)=O)CCN2C(=O)OC(C)(C)C)c1, other bond, di(N-succinimidyl) carbonate / N-methylmorpholine, DIPEA, THF, 7.5 mM, 25.0 °C, 17.0 h, 2 steps): 3.7% |
| Cc1ccc2nc1COc1cccc(c1F)C[C@H]1[C@@H](NS(C)(=O)=O)C(F)(F)CN1C(=O)NC2 [Example 54, N-[(16aS,17R)-18,18,21-trifluoro-7-methyl-1-oxo-2,3,16a,17,18,19-hexahydro-1H,9H,16H-4,8-(azeno)-11,15-(metheno)pyrrolo[2,1-h][1,9,11]oxadiazacyclo-octadecin-17-yl]methanesulfonamide] | 87 | ring closure, yield of all isomers (from Cc1ccc(CNC(=O)OC(C)(C)C)nc1COc1cccc(C[C@H]2[C@@H](NS(C)(=O)=O)C(F)(F)CN2C(=O)OC(C)(C)C)c1F, other bond, di(N-succinimidyl) carbonate / N-methylmorpholine, DIPEA, THF, 2.78 mM, 60.0 °C, 22.0 h, 2 steps): 14.4% |
| CCS(=O)(=O)N[C@H]1[C@@H](F)CN2C(=O)NCc3ccc(C)c(n3)Cc3cccc(c3F)C[C@@H]12 [Example 56, N-[(15aS,16R,17S)-17,20-difluoro-7-methyl-1-oxo-2,3,15a,16,17,18-hexahydro-1H,9H,15H-8,4-(azeno)-10,14-(metheno)pyrrolo[1,2-c][1,3]diazacycloheptadecin-16-yl]ethanesulfonamide] | 100 | ring closure, yield of all isomers (from CCS(=O)(=O)N[C@@H]1[C@H](Cc2cccc(Cc3nc(CN)ccc3C)c2F)NC[C@@H]1F, other bond, di(N-succinimidyl) carbonate / 4-methylmorpholine, DIPEA, THF, 4.1 mM, 25.0 °C, 17.0 h): 3.9% |
| Cc1ccc2nc1Oc1cccc(c1F)C[C@H]1[C@@H](NC(=O)OCc3ccccc3)C(F)(F)CN1C(=O)NC2 |  | ring closure, yield of all isomers (from Cc1ccc(CN)nc1Oc1cccc(C[C@@H]2NCC(F)(F)[C@@H]2NC(=O)OCc2ccccc2)c1F, other bond, di(N-succinimidyl) carbonate, THF, 2.0 mM, 70.0 °C, 5.2 h): 78.8% |
| Cc1ccc2nc1Oc1cccc(c1)C[C@H]1[C@@H](NS(C)(=O)=O)C(F)(F)CN1C(=O)NC2 [Example 2, N-[(15aS,16R)-17,17-difluoro-7-methyl-1-oxo-2,3,15a,16,17,18-hexahydro-1H,15H-4,8-(azeno)-10,14-(metheno)pyrrolo[1,2-j][1,8,10]oxadiazacyclo-heptadecin-16-yl]methanesulfonamide] | 96 | ring closure, yield of all isomers (from Cc1ccc(CN)nc1Oc1cccc(C[C@@H]2NCC(F)(F)[C@@H]2NS(C)(=O)=O)c1, other bond, CDI/DIPEA, DMF, 2.0 mM, 25.0 °C, 14.0 h): 7.6% |
| CCS(=O)(=O)N[C@@H]1[C@@H]2Cc3cccc(c3F)Oc3nc(ccc3C)CNC(=O)N2CC1(F)F [Example 5, N-[(15aS,16R)-17,17,20-trifluoro-7-methyl-1-oxo-2,3,15a,16,17,18-hexahydro-1H,15H-4,8-(azeno)-10,14-(metheno)pyrrolo[1,2-j][1,8,10]oxadiazacyclo-heptadecin-16-yl]ethanesulfonamide] | 102 | ring closure, yield of all isomers (from CCS(=O)(=O)N[C@@H]1[C@H](Cc2cccc(Oc3nc(CN)ccc3C)c2F)NCC1(F)F, other bond, di(N-succinimidyl) carbonate/4-methylmorpholine/DIPEA, THF, 1.81 mM, 25.0 °C, 12.0 h): 21% |
| CCS(=O)(=O)N[C@@H]1[C@@H]2Cc3cccc(c3F)Oc3nc(ccc3C)OCC(=O)N2CC1(F)F [Example 45, N-[(15aS,16R)-17,17,20-trifluoro-7-methyl-1-oxo-1,2,15a,16,17,18-hexahydro-15H-4,8-(azeno)-14,10-(metheno)pyrrolo[1,2-d][1,12,4]dioxazacyclo-heptadecin-16-yl]ethanesulfonamide] | 105 |  |
| CCS(=O)(=O)N[C@@H]1[C@@H]2Cc3cc(ccc3F)Oc3nc(ccc3C)CNC(=O)N2CC1(F)F (relative stereo) [Example 90, N-[rel-(15aS,16R)-13,17,17-trifluoro-7-methyl-1-oxo-2,3,15a,16,17,18-hexahydro-1H,15H-4,8-(azeno)-14,10-(metheno)pyrrolo[1,2-j][1,8,10]oxadiazacyclohepta-decin-16-yl]ethanesulfonamide (optical isomer)] | 108 |  |
| N-[(15aS,16R)-17,17- difluoro-7-methyl-1-oxo- 2,3,15a,16,17,18-hexahydro- 1H,15H-4,8-(azeno)-10,14- (metheno)pyrrolo[1,2- j][1,8,10]oxadiazacyclo- heptadecin-16- yl]ethanesulfonamide [Example 6] | 99 |  |
